Measured values: US10106516B2, “PDE10 inhibitors and related compositions and methods” (Omeros Corporation, priority 2010, dated 2018)

What follows are compounds tested against T1, PDE10 (Homo sapiens, UniProt Q9Y233) (assay: PDE10 biochemical assay (two-step Thompson and Appleman method or SPA)). Conditions: PDE10 inhibition.
T1 construct: made in house; host or cells: Sf9 insect cells (baculovirus)
T1 sequence (Q9Y233 1-779 isoform Q9Y233-1): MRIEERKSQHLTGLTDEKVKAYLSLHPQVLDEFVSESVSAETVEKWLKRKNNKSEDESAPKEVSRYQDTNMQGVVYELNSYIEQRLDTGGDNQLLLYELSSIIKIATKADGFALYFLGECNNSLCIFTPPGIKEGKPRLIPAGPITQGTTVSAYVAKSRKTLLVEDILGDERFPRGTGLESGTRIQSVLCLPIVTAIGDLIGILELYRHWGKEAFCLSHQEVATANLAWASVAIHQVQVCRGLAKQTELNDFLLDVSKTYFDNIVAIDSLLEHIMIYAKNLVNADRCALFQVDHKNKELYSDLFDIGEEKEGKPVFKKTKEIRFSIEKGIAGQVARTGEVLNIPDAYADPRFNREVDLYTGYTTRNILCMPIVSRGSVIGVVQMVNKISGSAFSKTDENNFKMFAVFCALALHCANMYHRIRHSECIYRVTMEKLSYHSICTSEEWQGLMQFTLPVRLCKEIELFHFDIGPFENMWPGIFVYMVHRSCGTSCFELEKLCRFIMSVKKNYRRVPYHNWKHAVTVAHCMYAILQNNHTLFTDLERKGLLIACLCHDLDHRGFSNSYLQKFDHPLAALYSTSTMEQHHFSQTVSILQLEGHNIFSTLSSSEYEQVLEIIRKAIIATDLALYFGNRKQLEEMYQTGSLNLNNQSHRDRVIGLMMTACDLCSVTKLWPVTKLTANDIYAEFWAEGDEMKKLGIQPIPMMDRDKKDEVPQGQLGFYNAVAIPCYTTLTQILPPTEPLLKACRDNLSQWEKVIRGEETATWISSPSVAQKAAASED
Procedure: In short, cAMP is spiked with (^3H)cAMP and incubated with PDE10 and various concentrations of a compound of structure (I). After the appropriate incubation time, the reaction is terminated by heating. The mixture is then subjected to treatment with snake venom phosphatase. The phosphatase hydrolyzes any AMP in the mixture, but leaves unreacted cAMP intact. Thus, by separating cAMP from the mixture and determining its concentration (by radiography), the percent of inhibition can be determined. IC50 values can be calculated by performing the experiment at several concentrations using standard graphical means. A detailed description of the actual technique used for IC50 assays as set forth in following Examples.
The phosphodiesterase (PDE) assay was performed using recombinant human PDE 1A3, 2A3, 3 catalytic region, 4 catalytic region, 5 catalytic region, 7A, 8A, 9A2, 10A1 and 11A1 enzymes expressed in a baculoviral system using Sf9 cells. PDE activity was measured using a modification of the two-step method of Thompson and Appleman described above which was adapted for 96 well plate format. […] The final assay volume was 110 μl with assay buffer (10 mM MgCl2; 40 mM Tris.HCl; pH 7.4). Reactions were initiated with enzyme and incubated with (^3H)-substrate and substance for 20 minutes at 30° C. The reaction was terminated by denaturing the enzyme (heating the reaction to 70° C. for 2 minutes). The reaction was then cooled at 4° C. for 10 minutes before the addition of snake venom (Crotalus atrox, 0.2 mg/ml) for 10 minutes at 30° C., thus allowing non-specific hydrolysis of the tritiated substrate. Separation of the remaining unhydrolysed cyclic nucleotide was achieved by a batch binding of the mixture to activated Dowex (200 μl) anion exchange resin. The anion exchange resin bound the charged nucleotides, leaving only hydrolysed (^3H) substrate in the soluble fraction. The soluble fraction (50 μl) was then added to microscint-20 (200 μl) and counted on a Top Count Plate reader. Radioactivity units were plotted against inhibitor concentration and IC50 values obtained using Graph Pad Prism software.
Alternatively, phosphodiesterase activity was measured by scintillation proximity assay (SPA) with [^3H]-cGMP as substrate. Purified PDE10 was diluted and stored in 25 mM Tris-Cl (pH 8.0)/100 mM NaCl/0.05% Tween 20/50% glycerol/3 mM DTT. Assays contained (final concentrations): 50 mM Tris-Cl (pH 7.5)/8.3 mM MgCl2/1.7 mM EGTA/0.5 mg/ml BSA/5% DMSO and 2 ng PDE10 in a final volume of 0.1 mL. Inhibition was evaluated at 8 concentrations in duplicate. Reactions were initiated by addition of enzyme and were terminated after 20 minutes at 30° C. by the addition of 50 μl of SPA beads containing Zn^++. The mixture was shaken, allowed to settle for 3 hours, and counted in a Wallac plate counter. Results (net cpm) were fitted to a four parameter logistic model using Excel Solver®.
`COc1cc(-c2ccc(C(=O)C(OC)c3ccc(-c4csc(C)n4)cc3)o2)cc(OC)c1Br` (stereo not drawn) [Compound 35-1, 1-(5-(4-Bromo-3,5-Dimethoxyphenyl)Furan-2-Yl)-2-Methoxy-2-(4-(2-Methylthiazol-4-Yl)Phenyl)Ethanone] gave an IC50 of at most 1 µM. `COc1cc(-c2ccc(C(=O)C(OC)c3ccc(-c4cccnc4)cc3)o2)cc(OC)c1Br` (stereo not drawn) [Compound 37-1, 1-(5-(4-Bromo-3,5-Dimethoxyphenyl)Furan-2-Yl)-2-Methoxy-2-(4-(Pyridin-3-Yl)Phenyl)Ethanone] showed an IC50 of at most 1 µM. For `CCOC(C(=O)c1ccc(-c2cc(OC)c(Br)c(OC)c2)o1)c1ccc(N2CCOCC2)cc1` (stereo not drawn) [Compound 38-1, 1-(5-(4-Bromo-3,5-Dimethoxyphenyl)Furan-2-Yl)-2-Ethoxy-2-(4-Morpholinophenyl)Ethanone], the IC50 was at most 1 µM. `COc1cc(-c2ccc(C(=O)C(OC)c3ccc(-c4nnc(C)o4)cc3)o2)cc(Br)c1OC` (stereo not drawn) [Compound 39-1, 1-(5-(3-Bromo-4,5-Dimethoxyphenyl)Furan-2-Yl)-2-Methoxy-2-(4-(5-Methyl-1,3,4-Oxadiazol-2-Yl)Phenyl)Ethanone] was tested, and the IC50 was at most 1 µM. Work on `COc1cc(-c2ccc(C(=O)C(OC)c3ccc(-c4nnc(C)o4)cc3)o2)cc(Cl)c1OC` (stereo not drawn) [Compound 40-1, 1-(5-(3-Chloro-4,5-Dimethoxyphenyl)Furan-2-Yl)-2-Methoxy-2-(4-(5-Methyl-1,3,4-Oxadiazol-2-Yl)Phenyl)Ethanone] yielded an IC50 of at most 1 µM. `COc1cc(-c2ccc(C(=O)C(OCC3CC3)c3ccc(N4CCOCC4)cc3)o2)cc(OC)c1Br` (stereo not drawn) [Compound 41-1, 1-(5-(4-Bromo-3,5-Dimethoxyphenyl)Furan-2-Yl)-2-(Cyclopropylmethoxy)-2-(4-Morpholinophenyl)Ethanone] gave an IC50 of at most 1 µM. `COc1ccc(C(OC)C(=O)c2ccc(-c3cc(OC)c(Br)c(OC)c3)o2)cn1` (stereo not drawn) [Compound 42-1, 1-(5-(4-Bromo-3,5-Dimethoxyphenyl)Furan-2-Yl)-2-Methoxy-2-(6-Methoxypyridin-3-Yl)Ethanone] was tested, and the IC50 was at most 1 µM. `COc1cc(-c2ccc(C(=O)C(OC)c3ccc(CN(C)C)cc3)o2)cc(OC)c1Br` (stereo not drawn) [Compound 43-1, 1-(5-(4-Bromo-3,5-Dimethoxyphenyl)Furan-2-Yl)-2-(4-((Dimethylamino)Methyl)Phenyl)-2-Methoxyethanone] showed an IC50 of at most 1 µM. Compound `COc1cc(-c2ccc(C(=O)C(OC)c3ccc(N4CCOCC4)nc3)o2)cc(OC)c1Br` (stereo not drawn) [Compound 44-1, 1-(5-(4-Bromo-3,5-Dimethoxyphenyl)Furan-2-Yl)-2-Methoxy-2-(6-Morpholinopyridin-3-Yl)Ethanone] has an IC50 of at most 1 µM. Compound `COc1cc(-c2ccc(C(=O)C(OC)c3ccc(-c4cnccn4)cc3)o2)cc(OC)c1Br` (stereo not drawn) [Compound 45-1, 1-(5-(4-Bromo-3,5-Dimethoxyphenyl)Furan-2-Yl)-2-Methoxy-2-(4-(Pyrazin-2-Yl)Phenyl)Ethanone] has an IC50 of at most 1 µM. `CCOC(C(=O)c1ccc(-c2cc(OC)c(OC)c(OC)c2)o1)c1ccc(-c2nnc(C)o2)cc1` (stereo not drawn) [Compound 46-1, 2-Ethoxy-2-(4-(5-Methyl-1,3,4-Oxadiazol-2-Yl)Phenyl)-1-(5-(3,4,5-Trimethoxyphenyl)Furan-2-Yl)Ethanone] was tested, and the IC50 was at most 1 µM. With `COc1cc(-c2ccc(C(=O)C(OC)c3ccc(N4CCOCC4)cc3)o2)cc(OC)c1F` (stereo not drawn) [Compound 48-1, 1-(5-(4-Fluoro-3,5-Dimethoxyphenyl)Furan-2-Yl)-2-Methoxy-2-(4-Morpholinophenyl)Ethanone] the IC50 was at most 1 µM. `COc1cc(-c2ccc(C(=O)C(OC)c3ccc(N4CCOCC4)cc3)o2)cc(OC)c1Cl` (stereo not drawn) [Compound 50-1, 1-(5-(4-Chloro-3,5-Dimethoxyphenyl)Furan-2-Yl)-2-Methoxy-2-(4-Morpholinophenyl)Ethanone] gave an IC50 of at most 1 µM. For `COc1ccc(-c2ccn(C(=O)C(OC)c3ccc(F)cc3)n2)cc1OC` (stereo not drawn) [Compound 51-1, 1-(3-(3,4-Dimethoxyphenyl)-1H-Pyrazol-1-Yl)-2-(4-Fluorophenyl)-2-Methoxyethanone], the IC50 was at most 1 µM. Work on `COc1cc(-c2ccn(C(=O)C(OC)c3ccc(N4CCOCC4)cc3)n2)cc(OC)c1Br` (stereo not drawn) [Compound 52-1, 1-(3-(4-Bromo-3,5-Dimethoxyphenyl)-1H-Pyrazol-1-Yl)-2-Methoxy-2-(4-Morpholinophenyl)Ethanone] yielded an IC50 of at most 1 µM. `COc1ccc(-c2ccn(C(=O)C(OC)c3ccc(N4CCOCC4)cc3)n2)cc1OC` (stereo not drawn) [Compound 53-1, 1-(3-(3,4-Dimethoxyphenyl)-1H-Pyrazol-1-Yl)-2-Methoxy-2-(4-Morpholinophenyl)Ethanone] showed an IC50 of at most 1 µM. Compound `COc1cc(-c2nc(C(=O)C(OC)c3ccc(N4CCOCC4)cc3)no2)cc(OC)c1Br` (stereo not drawn) [Compound 54-1, 1-(5-(4-Bromo-3,5-Dimethoxyphenyl)-1,2,4-Oxadiazol-3-Yl)-2-Methoxy-2-(4-Morpholinophenyl)Ethanone] has an IC50 of at most 1 µM. With `COc1cc(-c2nc(C(=O)C(OC)c3ccc(N4CCOCC4)cc3)oc2C)cc(OC)c1Br` (stereo not drawn) [Compound 55-1, 1-(4-(4-Bromo-3,5-Dimethoxyphenyl)-5-Methyloxazol-2-Yl)-2-Methoxy-2-(4-Morpholinophenyl)Ethanone] the IC50 was at most 1 µM. Compound `COc1cc(-c2cnc(C(=O)C(OC)c3ccc(N4CCOCC4)cc3)o2)cc(OC)c1Br` (stereo not drawn) [Compound 56-1, 1-(5-(4-Bromo-3,5-Dimethoxyphenyl)Oxazol-2-Yl)-2-Methoxy-2-(4-Morpholinophenyl)Ethanone] has an IC50 of at most 1 µM. For `COc1cc(-c2ccc(C(=O)C(OC)c3ccc(-c4nnc(C)o4)cc3)s2)cc(OC)c1Br` (stereo not drawn) [Compound 57-1, 1-(5-(4-Bromo-3,5-Dimethoxyphenyl)Thiophen-2-Yl)-2-Methoxy-2-(4-(5-Methyl-1,3,4-Oxadiazol-2-Yl)Phenyl)Ethanone], the IC50 was at most 1 µM. In the case of `COc1cc(-c2ccc(C(=O)C(OC)c3ccc(N4CCOCC4)cc3)s2)cc(OC)c1Br` (stereo not drawn) [Compound 59-1, 1-(5-(4-Bromo-3,5-Dimethoxyphenyl)Thiophen-2-Yl)-2-Methoxy-2-(4-Morpholinophenyl)Ethanone], the IC50 is reported as at most 1 µM. Work on `COc1cc(-c2ccc(C(=O)C(OC)c3ccc(-c4nnc(C5CC5)o4)cc3)o2)cc(OC)c1OC` (stereo not drawn) [Compound 60-1, 2-(4-(5-Cyclopropyl-1,3,4-Oxadiazol-2-Yl)Phenyl)-2-Methoxy-1-(5-(3,4,5-Trimethoxyphenyl)Furan-2-Yl)Ethanone] yielded an IC50 of at most 1 µM. `COc1cc(-c2ccc(C(=O)C(OC)c3ccc(-c4nnc(C)o4)cc3)o2)cc(OC)c1F` (stereo not drawn) [Compound 62-1, 1-(5-(4-Fluoro-3,5-Dimethoxyphenyl)Furan-2-Yl)-2-Methoxy-2-(4-(5-Methyl-1,3,4-Oxadiazol-2-Yl)Phenyl)Ethanone] showed an IC50 of at most 1 µM. Compound `CCOC(C(=O)c1ccc(-c2cc(OC)c(Cl)c(OC)c2)o1)c1ccc(N2CCOCC2)cc1` (stereo not drawn) [Compound 64-1, 1-(5-(4-Chloro-3,5-Dimethoxyphenyl)Furan-2-Yl)-2-Ethoxy-2-(4-Morpholinophenyl)Ethanone] has an IC50 of at most 1 µM. With `COc1cc(-c2coc(C(=O)C(OC)c3cccc(N4CCOCC4)c3)n2)cc(OC)c1Br` (stereo not drawn) [Compound 65-1] the IC50 was at most 1 µM. For `COc1cc(-c2coc(C(=O)C(OC)c3ccc(-n4cncn4)cc3)n2)cc(OC)c1Br` (stereo not drawn) [Compound 65-2], the IC50 was at most 1 µM. `COc1cc(-c2coc(C(=O)C(OC)c3ccc(OC(F)(F)F)cc3)n2)cc(OC)c1Br` (stereo not drawn) [Compound 65-3] showed an IC50 of at most 1 µM. In the case of `COc1cc(-c2coc(C(=O)C(OC)c3ccc(-n4ccnn4)cc3)n2)cc(OC)c1Br` (stereo not drawn) [Compound 65-4], the IC50 is reported as at most 1 µM. Compound `COc1cc(-c2coc(C(=O)C(OC)c3ccc(-n4nccn4)cc3)n2)cc(OC)c1Br` (stereo not drawn) [Compound 65-5] has an IC50 of at most 1 µM. Compound `COc1cc(-c2coc(C(=O)C(OC)c3ccc(-n4cc(C)cn4)cc3)n2)cc(OC)c1Br` (stereo not drawn) [Compound 65-6] has an IC50 of at most 1 µM. `COc1cc(-c2ccc(C(=O)C(OC)c3ccc(N4CCOCC4)cc3)o2)cc(OC)c1OC` (stereo not drawn) [Compound 65-7] gave an IC50 of at most 1 µM. With `COc1cc(-c2ccc(C(=O)C(OC)c3ccc(-c4nnc(C)s4)cc3)o2)cc(OC)c1OC` (stereo not drawn) [Compound 65-8] the IC50 was at most 1 µM. `COc1cc(-c2ccc(C(=O)C(OC)c3ccc(-n4cccn4)cc3)o2)cc(OC)c1OC` (stereo not drawn) [Compound 65-9] was tested, and the IC50 was at most 1 µM. With `CCOC(C(=O)c1ccc(-c2cc(OC)c(Br)c(OC)c2)o1)c1ccc(-c2nnc(C)s2)cc1` (stereo not drawn) [Compound 65-11] the IC50 was at most 1 µM. `COc1cc(-c2ccc(C(=O)C(OC)c3ccc(-c4nnc(C)o4)cc3)o2)cc(OC)c1C#N` (stereo not drawn) [Compound 65-12] was tested, and the IC50 was at most 1 µM. With `CCOC(C(=O)c1ccc(-c2cc(OC)c(F)c(OC)c2)o1)c1ccc(-c2nnc(C)o2)cc1` (stereo not drawn) [Compound 65-13] the IC50 was at most 1 µM.
